Literature values, collected in EP4135668B1, “SOLID ORAL DOSAGE FORM COMPRISING POMALIDOMIDE” (Tecnimede, Sociedade Técnico-Medicinal, SA, priority 2020, dated 2021).

Settings: low aqueous solubility and low permeability active compound

Biopharmaceutics Classification System (BCS) class: Class IV
Structure (SMILES): Nc1cccc2c1C(=O)N(C1CCC(=O)NC1=O)C2=O (stereo not shown) [Pomalidomide, 4-amino-2-(2,6-dioxopiperidine-3-yl)isoindoline-l,3-dione]
